Data as given in ChEMBL document CHEMBL5537108, “A comprehensive review on the global efforts on vaccines and repurposed drugs for combating COVID-19” (Eur J Med Chem, 2023).
Where a name gives a salt, the structure may show the parent alone.

Assays:
Format in all cases: functional, organism-based
SARS-CoV-2 [1] = experiment: Antiviral activity against SARS-CoV-2 infected in African green monkey Vero cells assessed as reduction in virus-induced cytopathic effect incubated for 5 days by microscopic analysis; details: Severe acute respiratory syndrome coronavirus 2, Vero, 120 h
SARS-CoV-2 [2] = experiment: Antiviral activity against SARS-CoV-2 B.1.1.7 infected in human Calu-3 cells assessed as inhibition of viral infection measured after 48 hrs by Hoechst 33342 staining based analysis; details: Severe acute respiratory syndrome coronavirus 2, B.1.1.7, Calu-3, 48 h
Ebolavirus [3] = experiment: Antiviral activity against Ebola virus infected in African green monkey Vero cells incubated for 3 days by immunofocus assay; details: Orthoebolavirus, 72 h
Ebolavirus [4] = experiment: Antiviral activity against EBOV infected in human Huh-7 cells assessed as reduction in viral replication; details: Orthoebolavirus
[5] = test system: Middle East respiratory syndrome-related coronavirus; experiment: Antiviral activity against MERS-CoV infected in human Calu-3 cells assessed as inhibition of viral growth by infection assay
SARS-CoV-2 [6] = experiment: Antiviral activity against SARS-CoV-2 NRC-03-nhCoV infected in african green monkey Vero E6 cells assessed as inhibition of virus-induced cytopathic effect measured after 72 hrs by crystal violet staining based assay; details: Severe acute respiratory syndrome coronavirus 2, NRC-03-nhCoV, Vero C1008, 72 h
SARS-CoV-2 [7] = experiment: Antiviral activity against SARS-CoV-2 infected in African green monkey Vero cells assessed as reduction in viral replication measured after 72 hrs by qRT-PCR analysis; details: Severe acute respiratory syndrome coronavirus 2, Vero
[8] = test system: Middle East respiratory syndrome-related coronavirus; experiment: Antiviral activity against MERS-CoV infected in african green monkey Vero E6; details: Vero C1008

## CCC(CC)COC(=O)[C@H](C)N[P@](=O)(OC[C@H]1O[C@@](C#N)(c2ccc3c(N)ncnn23)[C@H](O)[C@@H]1O)Oc1ccccc1
SARS-CoV-2 [1]
  EC50: 10 nM
SARS-CoV-2 [2]
  EC50: 67 µM
Ebolavirus [3]
  EC50: 770 nM
Ebolavirus [4]
  EC50: 61.9 µM

## CN(C)C(=O)COC(=O)Cc1ccc(OC(=O)c2ccc(NC(=N)N)cc2)cc1 [CAMOSTAT]
[5]
  EC50: 5 nM

## Cc1nc(Nc2ncc(C(=O)Nc3c(C)cccc3Cl)s2)cc(N2CCN(CCO)CC2)n1 [DASATINIB ANHYDROUS]
SARS-CoV-2 [6]
  EC50: 2100 nM

## Cc1cccc(C)c1OCC(=O)N[C@@H](Cc1ccccc1)[C@@H](O)C[C@H](Cc1ccccc1)NC(=O)[C@H](C(C)C)N1CCCNC1=O [LOPINAVIR]
SARS-CoV-2 [7]
  EC50: 5.73 µM

## N=C(N)Nc1ccc(C(=O)Oc2ccc3cc(C(=N)N)ccc3c2)cc1 [NAFAMOSTAT MESYLATE]
[5]
  EC50: 87 nM

## CC(C)c1nc(CN(C)C(=O)N[C@H](C(=O)N[C@@H](Cc2ccccc2)C[C@H](O)[C@H](Cc2ccccc2)NC(=O)OCc2cncs2)C(C)C)cs1 [RITONAVIR]
SARS-CoV-2 [7]
  EC50: 8.63 µM

## CN1CCN(CCOc2cc(OC3CCOCC3)c3c(Nc4c(Cl)ccc5c4OCO5)ncnc3c2)CC1 [SARACATINIB]
[8]
  EC50: 10 µM
